Assay results reported in article PMC4885110, “Structure-Based Design of an in Vivo Active Selective BRD9 Inhibitor” (Journal of Medicinal Chemistry, 2016).

Assays:
Aqueous solubility = format: physicochemical; settings: aqueous McIlvaine buffer, pH 6.8
Protocol: (§1) this tumor mouse model body weight changes can occur due to increased tumor load or due to […]
(§2) Determination of physicochemical and in vitro DMPK parameters […]
(§3) diluted with aqueous McIlvaine buffer at pH 6.8, or with acetonitrile/water (1:1) as a reference. Samples were shaken for 24 h at room temperature in 96-well plates (Whatman Uniplate® 96 wells, 750 µL, polypropylene, round bottom). The plate was then centrifuged at 3,000 rpm for 2 min. 250 µL of each sample were transferred to a Millipore MultiScreenHTS filter plate with a polycarbonate membrane, pore size 0.45 μm. Filtrates were collected by centrifugation at 3,000 rpm for 2 min. The dissolved concentrations were determined by UPLC/UV on a Waters ACQUITY UPLC® SQD system equipped with a Waters ACQUITY UPLC® BEH 2.1x50 mm C18 column, particle size 1.7 µm, using a short gradient with water/0.1% formic acid as solvent A and acetonitrile/0.1 % formic acid as solvent B (5 to 95 % B with 1.7 min total cycle time). Compound signals were measured with a photodiode array UV detector operated at 254 nm. Solubility was determined with a one point calibration by comparing peak areas relative to the reference standard using Waters Empower software. […]

[1] = Hepatocytes predicted clearance, mouse; format: in vitro ADME
Protocol: as §1, §2, §3
(§4) In vitro plasma protein binding (PPB) was determined by a semi-automated equilibrium dialysis assay on a Tecan robotic system at a test compound concentration of 3 µM. […]

[2] = Hepatocytes predicted clearance, human; format: in vitro ADME
Protocol: as §1, §2, §3, §4

U2OS cells = assay: Toxicity in U2OS cells; format: cell-based; settings: after 24 h
Protocol: Figure 4 FRAP assay using U2OS cells transfected with GFP–BRD9. (a) Recovery half times of wild-type (wt) cells treated with DMSO in the absence or presence of 2.5 μM SAHA or treated with 1 at 1 μM and SAHA as indicated. In addition, cells expressing GFP–BRD9 with a BD-inactivating mutation (N100F) were analyzed. Significant differences relative to cells treated with SAHA (p < 0.0001) are shown by ****. (b) Time dependence of fluorescence recovery in the bleached area of cells expressing wt or mutant GFP–BRD9 with the corresponding treatments shown in (a). (c) Recovery half times of cells expressing wt GFP–BRD9 treated with various concentrations of DMSO and 2 in the presence or absence of SAHA as indicated. Cells expressing the GFP–BRD9 mutant (N100F) were treated as indicated. Significant differences relative to cells treated with SAHA (p < 0.0001) are shown by ****. (d) Time dependence of fluorescence recovery in the bleached area of cells expressing wt or mutant GFP–BRD9 with the corresponding treatments shown in (c). Curves represent averaged data of at least 20 replicates. […] The N100F construct is a negative control BRD9 mutant in which Asn100 is replaced by Phe100 and therefore acetylated histone cannot bind because of the lack of interaction to the anchor Asn and because of steric hindrance. […]

[3] = format: in vivo; settings: Mouse 5 mg/kg i.v. bolus
From the text: Mice were housed under pathogen-free conditions (AAALAC accredited facility) and treated according to the institutional, governmental and European Union guidelines (GV-SOLAS, Felasa, Austrian Animal Protection Laws). All animal studies were reviewed and approved by the internal ethics committee of Boehringer Ingelheim and the local governmental committee (Amt der Wiener Landesregierung, Magistratsabteilung 58, Vienna, Austria).
Pharmacokinetic and efficacy studies in mice […]
Following injection of the cells animals were randomized based on body weight (n=10/group). […] All doses were calculated relative to the mouse body weight on the treatment day. […]
body weight loss. Tumour load was measured 2-3 times weekly based on bioluminescence imaging as described previously. […]
1x10^6 cells/mL were incubated and continuously shaken in a Thermo Scientific Cytomat™ for 4 h at 85-95% relative humidity and 5-10% CO2 at 37 °C. Aliquots were taken from the medium at 0, 0.5, 1, 1.5, 2.5 und 4 h and concentrations of the test compounds quantified by HPLC/MS/MS on a BIOCIUS Life Sciences RapidFire® system coupled to a Thermo Scientific™ TSQ Vantage™ triple-quadrupole mass spectrometer. Predicted clearances were calculated using the well-stirred model.
as §4

[4] = Hepatocytes predicted clearance, rat; format: in vitro ADME
Protocol: as §1, §2, §3, §4

[5] = Disseminated EOL-1 AML mouse model; format: in vivo; settings: female, CIEA-NOG, po, 180 mg/kg p.o., plasma, last day of treatment
[6] = 1 week tolerability study in non-tumor-bearing CIEA-NOG mice; format: in vivo; settings: 180 mg/kg, continuous daily dosing, female CIEA-NOG mice
[7] = parameters: method as in earlier work; settings: cited from earlier work

Row | Compound | solubility at 24 h (Aqueous solubility) [µg/mL] | Hepatocytes pred. CL mouse [1] [% QH] | Hepatocytes pred. CL human [2] [% QH] | toxicity in U2OS cells (U2OS cells) | plasma CL [3] [% QH] | Hepatocytes pred. CL rat [4] [% QH] | AUC(0-t) [5] [µM·h] | tolerability [6] | membrane permeability [7] [nM/s]
1 | COc1cc(-c2cn(C)c(=O)c3cnccc23)cc(OC)c1CN(C)C [Compound 1, n1cc2c(cc1)C(=CN(C2=O)C)c1cc(c(c(c1)OC)CN(C)C)OC] | > 91 | 58 | 17 | no toxicity | 57 | < 7 | – | – | –
2 | COc1cc(-c2cn(C)c(=O)c3cnccc23)c(OC)cc1CN(C)C [Compound 2, 4-{4-[(Dimethylamino)methyl]-2,5-dimethoxyphenyl}-2-methyl-1,2-dihydro-2,7-naphthyridin-1-one] | > 90 | 56 | 17 | no toxicity | 65 | 17 | 268 | well-tolerated | –
3 | CCn1cc(-c2cccc(C(F)(F)F)c2)c2sc(C(=N)NC3CCS(=O)(=O)CC3)cc2c1=O [I-BRD9] | – | – | – | – | – | – | – | – | 210
